1 compound from patent US4602040A, “Meclofenamic acid topical pharmaceutical composition” (Warner-Lambert Company, priority 1985, dated 1986) can be followed below.

Structures are written as SMILES.

Data set [1] deals with carrageenan edema. As to the kind of experiment: carrageenan-induced paw edema, topical meclofenamic acid, CD-1 mice. Format: in vivo. Here is the method:
(§1) Method: Carrageenan edema was induced in mice by previously published methods (Levy, L., Life Sciences 8:601, 1969). Briefly, mice were injected in the left rear footpad with either 25 ul or 50 ul of a 1% solution of carrageenan in saline and in the contralateral footpad with a similar volume of saline. At various time intervals thereafter, the swelling was assessed in each of the rear footpads by mercury plethysmography.
In this example, female C57BL/6 or CD-1 mice were used in all studies, and swelling was assessed five hours after carrageenan injection by mercury plethysmography. Net edema was determined by subtracting the volume of the saline-injected foot from the volume of the carrageenan-injected foot. Meclofenamic acid was administered either topically or perorally one hour after carrageenan injection in a vehicle containing 50% PEG 400 monolaurate, 10 lantrol AWS, and 40% isopropyl alcohol. When applied topically, the appropriate hindpaw was dipped to the hairline in the meclofenamic acid solution or vehicle and rubbed gently for 15 seconds by a technician wearing rubber gloves. […]
(§2) Meclofenamic acid was administered orally by gavage needle in a volume of 50 ul of the monolaurate/lantrol AWS/isopropyl alcohol vehicle used above. Statistical differences in swelling between experimental groups were determined by student's t-test.
On the technique in general: Carrageenan injected into the paw causes an acute inflammation.

Data set [2] has as its system carrageenan edema. As to the kind of experiment: carrageenan-induced paw edema, topical meclofenamic acid, C57BL/6 mice. Format: in vivo. Here is the method:
as §1
(§3) In this example, female C57BL/6 or CD-1 mice were used in all studies, and swelling was assessed five hours after carrageenan injection by mercury plethysmography. Net edema was determined by subtracting the volume of the saline-injected foot from the volume of the carrageenan-injected foot. Meclofenamic acid was administered either topically or perorally one hour after carrageenan injection in a vehicle containing 50% PEG 400 monolaurate, 10 lantrol AWS, and 40% isopropyl alcohol. When applied topically, the appropriate hindpaw was dipped to the hairline in the meclofenamic acid solution or vehicle and rubbed gently for 15 seconds by a technician wearing rubber gloves. Approximately 50 ul of the meclofenamic acid or vehicle solution was used to treat each hindpaw.
as §2

A short description of data set [3]: solubility in water-miscible solvents. Format: physicochemical.
Data set [4] can be described thus: solubility of the drug in water and organic solvents. Format: physicochemical.
Data set [5] in a line: octanol/water partition coefficient. Format: physicochemical.
Data set [6] deals with carrageenan edema. As to the kind of experiment: carrageenan-induced paw edema, topical versus oral / distant-site administration. Format: in vivo, C57BL/6 mice. As for the experimental part:
as §1, §3, §2
To determine whether the observed activity of meclofenamic acid was actually due to topical rather than oral (as a result of preening) absorption, meclofenamic acid compositions (containing 1, 3 or 5% active ingredient in the above vehicle) were administered orally or topically (to the carrageenan-injected paw) and the effects on swelling were determined.

On to `Cc1ccc(Cl)c(Nc2ccccc2C(=O)O)c1Cl` [meclofenamic acid], for which the “reduction in swelling (in words)” value in the data set on carrageenan edema [1] (topical to carrageenan-injected foot one hour after carrageenan, swelling at five hours) is given as “dose-dependent reduction in swelling”; in the data set with carrageenan edema [2] (C57BL/6 mice, topical to carrageenan-injected foot one hour after carrageenan, swelling at five hours), “dose-dependent reduction in swelling”. The “inhibition of swelling (maximum effect)” value is reported as 36.4% with carrageenan edema [1] (topical, 5% concentration, five hours after carrageenan) and 49.7% in the data set on carrageenan edema [2] (C57BL/6 mice, topical, 3% concentration, five hours after carrageenan). For the same compound, in the data set on carrageenan edema [2] (C57BL/6 compared with CD-1 mice, topical), the “sensitivity of C57BL/6 mice to the effects of meclofenamic acid” value was “slightly more sensitive”. Besides, the “solubility in water-miscible solvents with the aid of heating” value in data set [3] (heating up to 90° C., same solvents, compared with room temperature) is given as “more”. Also, the “solubility in water-miscible solvents” value in data set [3] (room temperature, PEG 400, PEG-8 monolaurate, PEG glucose ethers (Glucam-E 10, P-20), PEG-75 Lanolin Oil, PPG-5-Ceteth-10 Phosphate) was not above 5%. Further, the “solubility in glycerin, isopropyl myristate and mineral oil” value in data set [4] (glycerin, isopropyl myristate, mineral oil) is “insoluble”. Also, in data set [4] (propylene glycol, ethyl alcohol, linoleic acid), the “solubility in propylene glycol, ethyl alcohol and linoleic acid” value is reported as “less than 5%”. The water solubility entry in data set [4] (water) is on record as “virtually water-insoluble”. The octanol/water partition coefficient entry in data set [5] was “highly favorable”. Also, the “inhibition of swelling, carrageenan-injected foot versus distant site” value with carrageenan edema [6] (topical to carrageenan-injected foot vs distant site (saline-injected foot), 1, 3, and 5% concentrations, p<0.05) was “significantly (p<0.05) more inhibitory”. The “inhibition of swelling, topical versus oral” value in the data set with carrageenan edema [6] (topical to carrageenan-injected foot vs oral, 1, 3, and 5% concentrations, p<0.05) is “significantly (p<0.05) more inhibitory”. Also, the local anti-inflammatory activity entry in the data set on carrageenan edema [6] (topically applied, data from Examples 5 and 6) is recorded as “significant local anti-inflammatory activity”.
